In experiment [1] the target is T1, Tyrosine-protein kinase TXK (Homo sapiens) (UniProt P42681).
T1 sequence (whole entry): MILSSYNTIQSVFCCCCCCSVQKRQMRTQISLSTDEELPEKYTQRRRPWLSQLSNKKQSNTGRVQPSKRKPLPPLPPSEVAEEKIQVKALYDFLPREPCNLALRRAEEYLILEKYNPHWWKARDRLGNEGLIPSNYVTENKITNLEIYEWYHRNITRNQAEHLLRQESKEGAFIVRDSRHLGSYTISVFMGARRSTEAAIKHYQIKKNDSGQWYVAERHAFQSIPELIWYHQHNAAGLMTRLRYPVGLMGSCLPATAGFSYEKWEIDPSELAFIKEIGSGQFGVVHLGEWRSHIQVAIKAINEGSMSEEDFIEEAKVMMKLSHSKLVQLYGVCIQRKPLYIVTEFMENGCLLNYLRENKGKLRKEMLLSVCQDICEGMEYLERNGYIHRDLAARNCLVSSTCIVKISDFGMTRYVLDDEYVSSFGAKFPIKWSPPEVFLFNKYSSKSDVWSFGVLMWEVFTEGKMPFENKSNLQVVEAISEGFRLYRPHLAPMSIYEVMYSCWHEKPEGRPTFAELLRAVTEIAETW
The experiment can be described thus: Inhibition of human recombinant TXK at 40 nM related to control ULK1.

The target in experiment [2] is Activated CDC42 kinase 1 (Homo sapiens) (UniProt Q07912). The experiment in a line: Inhibition of human recombinant ACK at 500 nM related to control ULK1.
Experiment [3] concerns the target RAF proto-oncogene serine/threonine-protein kinase (Homo sapiens) (UniProt P04049). The experiment can be described thus: Inhibition of human recombinant RAF1 at 500 nM in presence of ATP by radiometric assay relative to control.
The target in experiment [4] is T2, Serine/threonine-protein kinase TAO2 (Homo sapiens) (UniProt Q9UL54).
T2 sequence (whole entry): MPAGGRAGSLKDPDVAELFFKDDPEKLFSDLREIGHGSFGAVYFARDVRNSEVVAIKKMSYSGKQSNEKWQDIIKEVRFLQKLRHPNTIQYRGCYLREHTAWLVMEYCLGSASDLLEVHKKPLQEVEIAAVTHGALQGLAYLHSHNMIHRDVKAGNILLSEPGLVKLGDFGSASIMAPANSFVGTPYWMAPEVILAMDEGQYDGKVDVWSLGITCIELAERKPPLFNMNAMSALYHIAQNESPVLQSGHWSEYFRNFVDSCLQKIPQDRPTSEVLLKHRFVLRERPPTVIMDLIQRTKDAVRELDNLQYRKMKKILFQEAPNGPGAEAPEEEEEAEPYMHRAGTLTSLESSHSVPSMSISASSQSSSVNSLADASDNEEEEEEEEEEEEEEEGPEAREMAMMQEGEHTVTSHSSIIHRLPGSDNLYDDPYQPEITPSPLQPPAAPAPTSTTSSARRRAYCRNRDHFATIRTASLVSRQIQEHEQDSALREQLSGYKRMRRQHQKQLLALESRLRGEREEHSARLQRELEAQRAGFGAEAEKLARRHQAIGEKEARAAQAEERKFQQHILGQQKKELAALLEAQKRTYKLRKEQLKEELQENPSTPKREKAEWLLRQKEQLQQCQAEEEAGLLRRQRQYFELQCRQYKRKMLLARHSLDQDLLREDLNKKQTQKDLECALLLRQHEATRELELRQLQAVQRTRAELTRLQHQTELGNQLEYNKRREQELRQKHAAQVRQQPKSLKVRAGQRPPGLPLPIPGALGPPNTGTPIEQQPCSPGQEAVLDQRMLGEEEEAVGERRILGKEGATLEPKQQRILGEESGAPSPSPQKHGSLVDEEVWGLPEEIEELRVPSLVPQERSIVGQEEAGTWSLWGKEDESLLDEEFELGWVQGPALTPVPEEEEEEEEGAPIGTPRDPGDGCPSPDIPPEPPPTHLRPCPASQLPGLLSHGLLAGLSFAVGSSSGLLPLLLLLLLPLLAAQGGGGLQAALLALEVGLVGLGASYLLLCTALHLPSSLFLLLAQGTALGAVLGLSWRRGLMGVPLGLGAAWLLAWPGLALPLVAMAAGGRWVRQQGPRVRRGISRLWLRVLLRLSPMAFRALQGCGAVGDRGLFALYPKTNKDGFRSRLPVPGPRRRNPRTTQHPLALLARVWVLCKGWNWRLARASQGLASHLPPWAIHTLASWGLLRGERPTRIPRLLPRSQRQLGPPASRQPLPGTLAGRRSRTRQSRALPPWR
The experiment in a line: Inhibition of human recombinant TAO2 at 500 nM related to control ULK1.

The target of experiment [5] is Serine/threonine-protein kinase SIK3 (Homo sapiens) (UniProt Q9Y2K2). The experiment in a line: Inhibition of human recombinant QSK at 500 nM in presence of ATP by radiometric assay relative to control.
Experiment [6] addresses T3, Protein kinase C epsilon type (Homo sapiens) (UniProt Q02156).
T3 sequence (whole entry): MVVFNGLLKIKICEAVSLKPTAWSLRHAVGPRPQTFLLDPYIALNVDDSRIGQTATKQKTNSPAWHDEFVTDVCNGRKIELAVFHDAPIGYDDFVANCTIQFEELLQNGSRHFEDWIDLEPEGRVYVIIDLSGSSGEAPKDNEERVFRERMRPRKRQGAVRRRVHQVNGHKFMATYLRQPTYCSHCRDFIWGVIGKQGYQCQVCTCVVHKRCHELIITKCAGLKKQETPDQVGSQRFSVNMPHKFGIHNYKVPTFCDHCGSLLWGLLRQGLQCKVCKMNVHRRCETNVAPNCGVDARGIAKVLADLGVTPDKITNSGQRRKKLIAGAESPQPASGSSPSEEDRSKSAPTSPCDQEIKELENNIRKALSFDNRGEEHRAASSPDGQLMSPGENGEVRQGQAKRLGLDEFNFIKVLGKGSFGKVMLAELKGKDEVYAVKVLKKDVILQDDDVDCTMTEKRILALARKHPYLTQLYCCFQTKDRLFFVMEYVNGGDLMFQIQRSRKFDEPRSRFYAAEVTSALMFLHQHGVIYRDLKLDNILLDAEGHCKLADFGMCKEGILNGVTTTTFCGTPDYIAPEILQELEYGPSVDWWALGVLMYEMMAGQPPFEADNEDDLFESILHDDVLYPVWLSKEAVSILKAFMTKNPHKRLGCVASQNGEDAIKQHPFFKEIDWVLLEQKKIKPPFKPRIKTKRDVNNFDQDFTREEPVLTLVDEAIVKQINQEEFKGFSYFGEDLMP
The experiment can be described thus: Inhibition of human recombinant PKCe at 15 nM related to control ULK1.

Experimental findings from ChEMBL document CHEMBL5653631, “A Potent and Selective ULK1 Inhibitor Suppresses Autophagy and Sensitizes Cancer Cells to Nutrient Stress” (iScience, 2018) are described below.

The structures appear in SMILES notation.

RAF proto-oncogene serine/threonine-protein kinase (Homo sapiens), sequence (P04049 whole entry): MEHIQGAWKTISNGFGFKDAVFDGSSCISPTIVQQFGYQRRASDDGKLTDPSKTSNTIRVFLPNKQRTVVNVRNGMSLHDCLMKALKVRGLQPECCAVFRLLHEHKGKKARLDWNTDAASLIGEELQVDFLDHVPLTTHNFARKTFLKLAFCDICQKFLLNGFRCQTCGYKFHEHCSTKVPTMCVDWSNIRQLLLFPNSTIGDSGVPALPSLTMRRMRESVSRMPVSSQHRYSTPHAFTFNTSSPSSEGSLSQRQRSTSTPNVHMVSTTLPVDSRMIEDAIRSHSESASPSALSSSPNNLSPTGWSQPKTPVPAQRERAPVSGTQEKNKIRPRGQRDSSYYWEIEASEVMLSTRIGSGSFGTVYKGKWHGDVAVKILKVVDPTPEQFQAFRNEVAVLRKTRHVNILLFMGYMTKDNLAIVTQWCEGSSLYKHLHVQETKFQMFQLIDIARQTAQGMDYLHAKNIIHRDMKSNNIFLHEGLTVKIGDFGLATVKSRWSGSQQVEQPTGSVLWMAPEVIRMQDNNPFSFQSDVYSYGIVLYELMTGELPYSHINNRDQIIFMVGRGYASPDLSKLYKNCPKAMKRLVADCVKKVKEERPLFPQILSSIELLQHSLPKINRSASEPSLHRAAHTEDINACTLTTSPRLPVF
Activated CDC42 kinase 1 (Homo sapiens), sequence (Q07912 whole entry, looked up): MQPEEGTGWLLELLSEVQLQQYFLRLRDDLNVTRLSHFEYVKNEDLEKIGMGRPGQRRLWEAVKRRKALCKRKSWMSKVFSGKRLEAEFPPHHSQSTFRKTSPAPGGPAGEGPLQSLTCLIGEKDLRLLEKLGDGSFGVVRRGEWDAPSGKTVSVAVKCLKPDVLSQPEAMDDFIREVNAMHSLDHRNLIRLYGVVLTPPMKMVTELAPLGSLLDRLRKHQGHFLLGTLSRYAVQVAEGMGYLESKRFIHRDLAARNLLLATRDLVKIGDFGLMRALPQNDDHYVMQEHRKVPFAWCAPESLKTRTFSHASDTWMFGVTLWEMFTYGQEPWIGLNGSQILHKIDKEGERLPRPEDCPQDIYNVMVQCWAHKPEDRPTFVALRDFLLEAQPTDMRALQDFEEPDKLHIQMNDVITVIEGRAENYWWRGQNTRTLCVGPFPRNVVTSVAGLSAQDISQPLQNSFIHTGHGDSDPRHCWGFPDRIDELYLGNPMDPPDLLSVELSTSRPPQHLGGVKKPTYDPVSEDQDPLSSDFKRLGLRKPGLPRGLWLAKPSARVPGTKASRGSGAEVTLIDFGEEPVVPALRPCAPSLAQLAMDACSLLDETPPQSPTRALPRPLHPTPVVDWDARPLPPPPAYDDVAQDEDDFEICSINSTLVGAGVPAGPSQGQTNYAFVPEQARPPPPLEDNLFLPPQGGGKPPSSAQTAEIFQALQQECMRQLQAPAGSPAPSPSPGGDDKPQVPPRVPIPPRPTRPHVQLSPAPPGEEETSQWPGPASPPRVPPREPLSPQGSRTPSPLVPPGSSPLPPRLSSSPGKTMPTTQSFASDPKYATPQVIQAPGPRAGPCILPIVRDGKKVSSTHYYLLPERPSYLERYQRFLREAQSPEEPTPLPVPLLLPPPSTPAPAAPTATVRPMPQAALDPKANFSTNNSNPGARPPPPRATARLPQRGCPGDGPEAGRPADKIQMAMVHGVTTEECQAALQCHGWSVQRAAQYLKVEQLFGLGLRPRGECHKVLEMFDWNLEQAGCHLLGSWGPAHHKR
Serine/threonine-protein kinase SIK3 (Homo sapiens), sequence (Q9Y2K2 whole entry, looked up): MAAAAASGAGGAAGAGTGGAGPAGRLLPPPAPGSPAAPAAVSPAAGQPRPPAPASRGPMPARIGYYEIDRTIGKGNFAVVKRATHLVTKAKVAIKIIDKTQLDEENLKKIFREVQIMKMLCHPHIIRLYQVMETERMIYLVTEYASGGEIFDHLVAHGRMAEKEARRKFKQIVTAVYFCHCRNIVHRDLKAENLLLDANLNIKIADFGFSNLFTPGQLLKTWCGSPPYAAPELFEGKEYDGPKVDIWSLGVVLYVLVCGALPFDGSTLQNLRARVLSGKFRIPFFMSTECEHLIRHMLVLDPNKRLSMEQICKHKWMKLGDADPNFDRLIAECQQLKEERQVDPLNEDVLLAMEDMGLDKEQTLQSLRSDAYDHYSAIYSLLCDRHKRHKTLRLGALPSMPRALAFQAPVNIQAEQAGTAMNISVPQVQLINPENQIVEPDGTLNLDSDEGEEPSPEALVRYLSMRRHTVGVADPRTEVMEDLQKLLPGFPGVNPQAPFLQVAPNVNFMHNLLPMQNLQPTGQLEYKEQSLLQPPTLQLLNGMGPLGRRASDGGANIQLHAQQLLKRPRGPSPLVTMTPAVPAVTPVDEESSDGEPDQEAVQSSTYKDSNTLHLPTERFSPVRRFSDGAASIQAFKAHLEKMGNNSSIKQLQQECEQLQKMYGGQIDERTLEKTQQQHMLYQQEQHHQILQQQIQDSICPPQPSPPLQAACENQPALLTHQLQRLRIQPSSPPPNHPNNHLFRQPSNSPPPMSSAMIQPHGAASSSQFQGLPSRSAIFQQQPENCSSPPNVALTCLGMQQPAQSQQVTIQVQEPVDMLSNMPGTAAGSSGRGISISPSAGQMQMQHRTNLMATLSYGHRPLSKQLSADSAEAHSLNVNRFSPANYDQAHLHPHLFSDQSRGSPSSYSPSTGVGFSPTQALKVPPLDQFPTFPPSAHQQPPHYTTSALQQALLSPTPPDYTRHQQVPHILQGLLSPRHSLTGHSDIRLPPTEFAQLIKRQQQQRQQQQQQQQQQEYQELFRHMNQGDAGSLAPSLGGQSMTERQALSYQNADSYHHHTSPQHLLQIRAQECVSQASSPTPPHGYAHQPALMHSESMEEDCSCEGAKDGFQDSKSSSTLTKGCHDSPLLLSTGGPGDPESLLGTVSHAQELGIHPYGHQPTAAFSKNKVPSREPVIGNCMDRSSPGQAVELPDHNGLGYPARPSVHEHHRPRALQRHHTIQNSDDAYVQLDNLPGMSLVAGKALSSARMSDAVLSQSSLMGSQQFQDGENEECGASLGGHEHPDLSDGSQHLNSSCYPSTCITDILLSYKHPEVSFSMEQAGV

For the compound `O=C(N[C@@H](C1CC1)C(F)(F)F)c1cc(-c2cnn3cc(-c4ccc(F)cc4)cnc23)cs1`, the fold change (FC) in experiment [1] came to 0.18.
Consider `CNC(=O)c1ccccc1Oc1nc(Nc2cc(OC)c(OC)c(OC)c2)ncc1Br`, for which the fold change (FC) in experiment [2] was 0.42; in experiment [4] it was 0. The inhibition (usually the percentage by which the read-out fell short of the control) in experiment [3] turned out to be 11%; in experiment [5], 8%.
Regarding `CC(C)[C@H](NC(=O)c1cc(-c2cnn3cc(-c4ccc(OCCN5CCCCC5)cc4)cnc23)cs1)C(F)(F)F`, the fold change (FC) in experiment [6] was 0.
